Counter-ions that a name gives are not always drawn.
Experiments:
[1] = target: T1, IRAK4 (Homo sapiens, UniProt Q9NWZ3); assay: ALE THP1 HTRF (IRAK4 in THP1 cell lysates, Homogeneous Time Resolved Fluorescence); type: cell-based; parameters: THP1 Homogeneous Time Resolved Fluorescence (ALE THP1 HTRF) Procedure; endogenous in cells; host or cells: THP1; conditions: THP1 cells
T1 sequence (Q9NWZ3 1-460): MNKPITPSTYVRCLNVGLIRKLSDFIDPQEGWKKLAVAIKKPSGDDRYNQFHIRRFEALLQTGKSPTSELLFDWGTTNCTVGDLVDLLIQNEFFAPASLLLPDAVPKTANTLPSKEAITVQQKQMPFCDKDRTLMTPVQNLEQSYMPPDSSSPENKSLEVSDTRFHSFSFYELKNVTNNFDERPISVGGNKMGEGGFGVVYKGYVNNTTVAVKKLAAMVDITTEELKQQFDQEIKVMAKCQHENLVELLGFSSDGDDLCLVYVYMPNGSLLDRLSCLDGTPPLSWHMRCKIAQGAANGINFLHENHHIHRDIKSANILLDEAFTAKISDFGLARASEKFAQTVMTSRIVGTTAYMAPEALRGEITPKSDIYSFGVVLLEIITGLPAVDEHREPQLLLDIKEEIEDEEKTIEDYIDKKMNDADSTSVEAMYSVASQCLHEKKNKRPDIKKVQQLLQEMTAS
Procedure: Cell culture media was prepared in a tissue culture hood in a sterile environment by adding 10% FBS and 1% Penicillin Streptomycin to 500 mL no phenol red RPMI 1640 media. The media was filtered through a Nalgene Bottle Top Filter and stored at 4° C.
For Homogenous Time Resolved Fluorescence (HTRF) assays, a Cisbio HTRF kit was used, which included: Lysis Buffer #1 4×, Blocking Reagent #3 100×, 20× Antibody 1 (Anti-IRAK4 d2), 20× Antibody 2 (Anti-IRAK4 k), and Detection Buffer.
4× Lysis Buffer was stored at 4° C. For use as 1× Lysis buffer, the 4× solution was diluted with de-ionized water (distilled water, Gibco Cat. #15230279) and 100× Blocking Reagent in a 1:3:0.04 volume ratio.
20× Antibody Solution aliquots were stored in −80° C. and the Detection Buffer was stored in 4° C. For use as a 1× Antibody Solution, the 20× Antibody Solution aliquot was diluted with Detection Buffer in a 1:19 volume ratio.
Cells were lysed at room temperature for 45 min with shaking. A BCA protein assay was performed and normalization was conducted to the desired total protein concentration with 1× lysis buffer. Next, 1× Antibody Solutions were prepared by adding 380 μL Detection Buffer to 20 μL 20× Antibody Solution aliquots and mixing well. 1× Antibody Solutions were combined 1:1 and briefly vortexed. For control wells, 20 μL 1× anti IRAK4-k Antibody Solution was saved. The 384-well plate (ProxiPlate-384 Plus, Perkin Elmer Cat. #6008289) was loaded by adding 4 μL of the mixed Antibody Solution to empty wells using a single channel repeater. Using a multi-channel repeater, 16 μL lysate was added per well, and any bubbles that were formed were popped with 20 μL pipette tips and Kimwipe edges. In column 10, triplicates of each control was prepared. In wells A10, B10, and C10, buffer control was prepared by adding 16 μL Lysis Buffer and 4 μL Detection Buffer. In wells D10, E10, and F10, cryptate control was prepared by adding 16 μL Lysis Buffer, 2 μL Detection Buffer, and 2 μL 1× anti IRAK4-k Antibody Solution. In wells G10, H10, and 110, a negative control was prepared by adding 16 μL Lysis Buffer and 4 μL mixed Antibody Solution. The plate was sealed with a clear seal and covered with an aluminum lid. The plate was spun down at 800 g for 5 min and incubated in the dark at room temperature overnight. The next day, the plate was spun down at 800 g for 5 min. The samples were analyzed by a plate reader (Envision, PerkinElmer) using the Desnor 384 HTRF program.

[2] = target: T1, IRAK4; assay: IRAK4 PhosphoSens Biochemical Assay (BIOCHEM); conditions: 200 μM ATP, 10 μM peptide substrate AQT0326, 1 nM IRAK4, room temperature, 240 minutes
Procedure: The PhosphoSens® biochemical assay was performed as described by the vendor (AssayQuant Technologies Inc. Marlborough, MA). A 1.25× stock solution of IRAK4 (PV4002, ThermoFisher Scientific, Waltham, MA) and a 5× stock solution of ATP and Sox conjugated peptide substrate, AQT0326 (CSKS-AQT0326B, AssayQuant Technologies), were prepared in 1× kinase reaction buffer consisting of 50 mM HEPES, pH 7.5, 0.01% Brij-35, 0.5 mM EGTA, 20 mM MgCl2 and 1 mM DTT. 10 μL of the ATP and substrate solution mix, for a final concentration of 200 μM ATP and 10 μM peptide substrate, was added to a Coming 3574 384-well, white, non-binding surface microtiter plate containing 0.5 μL of serially diluted test compounds prepared in DMSO. The reactions were started with the addition of 40 μL of the enzyme solution, for a final IRAK4 concentration of 1 nM, and monitored every 71 seconds for 240 minutes at λEX 360/λEM 485 in a BioTek Synergy H4 plate reader (Agilent Technologies, Santa Clara, CA) at room temperature. The initial linear portions of the progress curves were fit according to a linear equation to yield the slopes and converted to % inhibition based on a value of 100% activity for the no inhibitor treated control. IC50 values of each compound were obtained by fitting the % inhibition-compound concentration curves using Dotmatics software (Dotmatics, Bishops Stortford, Hertfordshire, England).

[3] = target: T1, IRAK4; assay: IRAK4 PhosphoSens Biochemical Assay (BIOCHEM); conditions: 200 μM ATP, 10 μM peptide substrate AQT0326, 1 nM IRAK4, room temperature, 240 minutes; remark: listed apart in the source

EC50 [1] | IC50 [2] | IC50 [3] | Compound
5 nM | – | < 0.5 nM | C[C@H]1CN(CCN2CCC(n3cc(NC(=O)c4cnn5ccc(N6C[C@H](N)C[C@@H](F)C6)nc45)c(C(F)F)n3)CC2)CCN1c1ccc2c(C3CCC(=O)NC3=O)nn(C)c2c1 (some centres unmarked) [P-36]
5 nM | – | < 0.5 nM | C[C@@H]1CN(CCN2CCC(n3cc(NC(=O)c4cnn5ccc(N6C[C@H](N)C[C@@H](F)C6)nc45)c(C(F)F)n3)CC2)CCN1c1ccc2c(C3CCC(=O)NC3=O)nn(C)c2c1 (stereo partly drawn) [P-37, 5-((3R,5R)-3-amino-5-fluoropiperidin-1-yl)-N-(3-(difluoromethyl)-1-(1-(2-((3R)-4-(3-(2,6-dioxopiperidin-3-yl)-1-methyl-1H-indazol-6-yl)-3-methylpiperazin-1-yl)ethyl)piperidin-4-yl)-1H-pyrazol-4-yl)pyrazolo[1,5-a]pyrimidine-3-carboxamide]
> 10000 nM | – | < 0.5 nM | CN(CC[C@H]1CC[C@H](n2cc(NC(=O)c3cnn4ccc(N5CCOCC5)nc34)c(C(F)F)n2)CC1)C1CCN(c2ccc3c(C4CCC(=O)NC4=O)nn(C)c3c2)CC1 (some centres unmarked) [P-38]
6 nM | – | < 0.5 nM | Cn1nc(C2CCC(=O)NC2=O)c2ccc(N3CCN(CCN4CCC(n5cc(NC(=O)c6cnn7ccc(N8C[C@H](N)C[C@@H](F)C8)nc67)c(C(F)F)n5)CC4)CC3)cc21 (stereo partly drawn) [P-40, N-[3-(Difluoromethyl)-1-[1-[2-[4-[3-(2,6-dioxo-3-piperidyl)-1-methyl-indazol-6-yl]piperazin-1-yl]ethyl]-4-piperidyl]pyrazol-4-yl]-5-[(3R,5R)-3-amino-5-fluoro-1-piperidyl]pyrazolo[1,5-a]pyrimidine-3-carboxamide]
> 10000 nM | – | < 0.5 nM | CN(C[C@H]1CC[C@H](n2cc(NC(=O)c3cnn4ccc(N5CCOC5)nc34)c(C(F)F)n2)CC1)C1CCN(c2ccc3c(C4CCC(=O)NC4=O)nn(C)c3c2)CC1 (some centres unmarked) [P-41]
> 10000 nM | – | < 0.5 nM | CN(C)c1ccn2ncc(C(=O)Nc3cn([C@H]4CC[C@H](CN(C)C5CCN(c6ccc7c(C8CCC(=O)NC8=O)nn(C)c7c6)CC5)CC4)nc3C(F)F)c2n1 (some centres unmarked) [P-43]
> 10000 nM | – | 7.3 nM | CN(C[C@H]1CC[C@H](n2cc(NC(=O)c3cnn4ccc(NCc5ccccn5)nc34)c(C(F)F)n2)CC1)C1CCN(c2ccc3c(C4CCC(=O)NC4=O)nn(C)c3c2)CC1 (some centres unmarked) [P-44]
4 nM | – | < 0.5 nM | CN(C[C@H]1CC[C@H](n2cc(NC(=O)c3cnn4ccc(NCCN)nc34)c(C(F)F)n2)CC1)C1CCN(c2ccc3c(C4CCC(=O)NC4=O)nn(C)c3c2)CC1 (some centres unmarked) [P-45]
> 3000 nM | – | 0.8 nM | CN(C[C@H]1CC[C@H](n2cc(NC(=O)c3cnn4ccc(N5CC[C@H](c6ccn(C)n6)C5)nc34)c(C(F)F)n2)CC1)C1CCN(c2ccc3c(C4CCC(=O)NC4=O)nn(C)c3c2)CC1 (some centres unmarked) [P-46]
3750 nM | – | 2.4 nM | CN(C[C@H]1CC[C@H](n2cc(NC(=O)c3cnn4ccc(N5CC[C@@H](c6ccn(C)n6)C5)nc34)c(C(F)F)n2)CC1)C1CCN(c2ccc3c(C4CCC(=O)NC4=O)nn(C)c3c2)CC1 (some centres unmarked) [P-47]

Further lines, the molecule ahead of its results:

Compound | EC50 [1] | IC50 [2] | IC50 [3]
Cn1nc(C2CCC(=O)NC2=O)c2ccc(NC3CCN(CC4CCC(n5cc(NC(=O)c6cnn7ccc(N8C[C@H](N)C[C@@H](F)C8)nc67)c(C(F)F)n5)CC4)CC3)cc21 (stereo partly drawn) [P-2, N-[3-(difluoromethyl)-1-[4-[[4-[[3-(2,6-dioxo-3-piperidyl)-1-methyl-indazol-6-yl]amino]-1-piperidyl]methyl]cyclohexyl]pyrazol-4-yl]-5-[(3R,5R)-3-amino-5-fluoro-1-piperidyl]pyrazolo[1,5-a]pyrimidine-3-carboxamide] | 4 nM | < 0.5 nM | –
Cn1nc(C2CCC(=O)NC2=O)c2cccc(NC3CCN(CC4CCC(n5cc(NC(=O)c6cnn7ccc(N8C[C@H](N)C[C@@H](F)C8)nc67)c(C(F)F)n5)CC4)CC3)c21 (some centres unmarked) [P-3] | 8 nM | < 0.5 nM | –
Cn1nc(C2CCC(=O)NC2=O)c2ccc(NC3CCN(CC4CCC(n5cc(NC(=O)c6cnn7ccc(N8CC[C@H](F)[C@@H](N)C8)nc67)c(C(F)F)n5)CC4)CC3)cc21 (stereo partly drawn) [P-18, N-[3-(Difluoromethyl)-1-[4-[[4-[[3-(2,6-dioxo-3-piperidyl)-1-methyl-indazol-6-yl]amino]-1-piperidyl]methyl]cyclohexyl]pyrazol-4-yl]-5-[(3S,4S)-3-amino-4-fluoro-1-piperidyl]pyrazolo[1,5-a]pyrimidine-3-carboxamide] | 1 nM | < 0.5 nM | –
Cn1nc(C2CCC(=O)NC2=O)c2ccc(NC3CCN(CC4CCC(n5cc(NC(=O)c6cnn7ccc(N8CC[C@@H](F)[C@@H](N)C8)nc67)c(C(F)F)n5)CC4)CC3)cc21 (some centres unmarked) [P-21] | > 10000 nM | < 0.5 nM | –
Cn1nc(C2CCC(=O)NC2=O)c2ccc(N[C@@H]3CCN(CC4CCC(n5cc(NC(=O)c6cnn7ccc(N8C[C@H](N)C[C@@H](F)C8)nc67)c(C(F)F)n5)CC4)C[C@@H]3F)cc21 (some centres unmarked) [P-24] | 4 nM | < 0.5 nM | –
Cn1nc(C2CCC(=O)NC2=O)c2ccc(N[C@H]3CCN(CC4CCC(n5cc(NC(=O)c6cnn7ccc(N8C[C@H](N)C[C@@H](F)C8)nc67)c(C(F)F)n5)CC4)C[C@@H]3F)cc21 (some centres unmarked) [P-25] | 8 nM | < 0.5 nM | –
Cn1nc(C2CCC(=O)NC2=O)c2ccc(NC3CCN(CC4CCC(n5cc(NC(=O)c6cnn7ccc(N8CCOCC8)nc67)c(C(F)F)n5)CC4)CC3)cc21 (centres unmarked) [P-27, N-[3-(Difluoromethyl)-1-[4-[[4-[[3-(2,6-dioxo-3-piperidyl)-1-methyl-indazol-6-yl]amino]-1-piperidyl]methyl]cyclohexyl]pyrazol-4-yl]-5-morpholino-pyrazolo[1,5-a]pyrimidine-3-carboxamide formic acid salt] | 1 nM | < 0.5 nM | –
CN(c1ccc2c(C3CCC(=O)NC3=O)nn(C)c2c1)C1CCN(CC[C@H]2CC[C@H](n3cc(NC(=O)c4cnn5ccc(N6C[C@H](N)C[C@@H](F)C6)nc45)c(C(F)F)n3)CC2)CC1 (some centres unmarked) [P-33] | 10 nM | – | < 0.5 nM
CN(CC[C@H]1CC[C@H](n2cc(NC(=O)c3cnn4ccc(N5CCOCC5)nc34)c(C(F)F)n2)CC1)C1CCN(c2cccc3c(C4CCC(=O)NC4=O)nn(C)c23)CC1 (some centres unmarked) [P-35] | 4 nM | – | 0.8 nM

From patent US20260327232A1, “Heteroaryl Compounds as Ligand Directed Degraders of IRAK4” (Celgene Corporation, priority 2023, published 2026)
